Measured values published in US7951951B2, “Bicyclic enamino(thio)carbonyl compounds” (Bayer Cropscience AG, priority 2006, dated 2011).

Columns and labels:
Type in all cases: in vivo
[1] = test system: green peach aphid (Myzus persicae); experiment: Myzus test (MYZUPE spray treatment); conditions: spray on infested Chinese cabbage discs; for pest or weed control at 500 g/ha: Myzus persicae, in Brassica rapa, 120 h, after 5 days, read-out: Kill rate in % after 5 days; for Kill rate in % after 5 days: 500 g/ha
Description: Myzus Test (MYZUPE Spray Treatment)
(§1) Solvents: 78 parts by weight of acetone • • 1.5 parts by weight of dimethylformamide
(§2) Emulsifier: 0.5 part by weight of alkylaryl polyglycol ether
(§3) To produce a suitable preparation of active compound, 1 part by weight of active compound is mixed with the stated amounts of solvents and emulsifier, and the concentrate is diluted with emulsifier-containing water to the desired concentration.
Discs of Chinese cabbage (Brassica pekinensis) which are infested by all stages of the green peach aphid (Myzus persicae) are sprayed with a preparation of active compound of the desired concentration.
(§4) After the desired period of time, the effect in % is determined. 100% means that all aphids have been killed; 0% means that none of the aphids have been killed.
On this test, for example, the following compounds of the Preparation Examples show good activity: see table

[2] = test system: larvae of the mustard beetle (Phaedon cochleariae); experiment: Phaedon cochleariae test (PHAECO spray treatment); conditions: 500 g/ha, sprayed Chinese cabbage discs
Description: Phaedon cochleariae Test (PHAECO Spray Treatment)
as §1, §2, §3
After the desired period of time, the effect in % is determined. 100% means that all beetle larvae have been killed; 0% means that none of the beetle larvae have been killed.
(§5) In this test, for example, the following compounds of the Preparation Examples show good activity: see table

[3] = test system: caterpillars of the armyworm (Spodoptera frugiperda); experiment: Spodoptera frugiperda test (SPODFR spray treatment); conditions: 500 g/ha, sprayed maize leaf discs
Description: Spodoptera frugiperda Test (SPODFR Spray Treatment)
as §1, §2, §3
Discs of maize leaves (Zea mays) are sprayed with a preparation of active compound of the desired concentration and, after drying, populated with caterpillars of the armyworm (Spodoptera frugiperda).
After the desired period of time, the effect in % is determined. 100% means that all caterpillars have been killed; 0% means that none of the caterpillars have been killed.
as §5

[4] = test system: green peach aphid (Myzus persicae); experiment: Myzus persicae test, hydroponic treatment (MYZUPE sys.); conditions: 20 ppm, hydroponic treatment of pea plant
Description: Myzus persicae Test, Hydroponic Treatment (MYZUPE sys.)
(§6) Solvent: 7 parts by weight of dimethylformamide
(§7) Emulsifier: 2 parts by weight of alkylaryl polyglycol ether
(§8) To produce a suitable preparation of active compound, 1 part by weight of active compound is mixed with the stated amounts of solvent and emulsifier, and the concentrate is diluted with emulsifier-containing water to the desired concentration.
The preparation of active compound is mixed with water. The stated concentration refers to the amount of active compound per volume unit of […] (mg/l=ppm). The treated water is filled into containers housing a pea plant (Pisum sativum) which is then infected with the green peach aphid (Myzus persicae).
(§9) After the desired period of time, the kill in % is determined. 100% means that all aphids have been killed; 0% means that none of the aphids have been killed.
(§10) In this test, for example, the following compounds of the Preparation Examples show good activity: see table.

[5] = test system: cotton aphid (Aphis gossypii); experiment: Aphis gossypii test (APHIGO), leaf dipping; conditions: cotton leaves dipped
Description: (§11) Aphis gossypii Test (APHIGO)
Solvent: 7 parts by weight of dimethylformrnamide
as §7, §8
Cotton leaves (Gossypium hirsutum) which are heavily infested by the cotton aphid (Aphis gossypii) are treated by being dipped into the preparation of active compound of the desired concentration.
as §9, §10

Lucilia cuprina larvae = experiment: Lucilia cuprina test (LUCICU); conditions: 100 ppm, treated horse meat
Description: Lucilia cuprina Test (LUCICU)
Solvent: dimethyl sulphoxide
To produce a suitable preparation of active compound, 1 part by weight of active compound is mixed with the stated amount of water and the concentrate is diluted with water to the desired concentration.
Containers containing horse meat treated with the preparation of active compound of the desired concentration are populated with Lucilia cuprina larvae.
After the desired period of time, the kill in % is determined. 100% means that all larvae have been killed; 0% means that none of the larvae have been killed.
as §10

[6] = test system: cotton aphid (Aphis gossypii); experiment: Aphis gossypii test (APHIGO), spraying; conditions: 12 g/ha, cotton leaves sprayed
Description: as §11, §6
Emulsifier: 1 part by weight of alkylaryl polyglycol ether
as §8
Cotton leaves (Gossypium hirsutum) which are heavily infested by the cotton aphid (Aphis gossypii) are treated by spraying with the preparation of active compound at the stated concentration.
After the desired period of time, the kill in % is determined. 100% means that all animals have been killed; 0% means that none of the animals have been killed.
as §5

[7] = test system: green peach aphid (Myzus persicae); experiment: Myzus test; oral (MYZUPE O); conditions: 100 ppm, oral (sucking at the preparation)
Description: Myzus Test; Oral; (MYZUPE O)
Solvent: 80 parts by weight of acetone
To produce a suitable preparation of active compound, 1 part by weight of active compound is mixed with the stated amounts of solvent and emulsifier, and the concentrate is diluted with water to the desired concentration.
Containers are populated with all stages of the green peach aphid (Myzus persicae), the treatment is by sucking at the preparation of active compound of the desired concentration.
as §4, §5

[8] = test system: greenhouse red spider mite (Tetranychus urticae); experiment: Tetranychus test, OP-resistant (TETRUR spray treatment); conditions: 500 g/ha, sprayed bean leaf discs
Description: Tetranychus Test, OP-Resistant (TETRUR Spray Treatment)
as §1, §2, §3
Discs of bean leaves (Phaseolus vulgaris) which are infested by all stages of the greenhouse red spider mite (Tetranychus urticae) are sprayed with a preparation of active compound of the desired concentration.
After the desired period of time, the effect in % is determined. 100% means that all spider mites have been killed; 0% means that none of the spider mites have been killed.
as §10

O=C1C=C2C(=CCCN2Cc2ccc(Cl)nc2)O1 [Example I-20, 4-[(6-Chloropyridin-3-yl)methyl]-5,6-dihydrofuro[3,2-b]pyridin-2(4H)-one]
pest or weed control at 500 g/ha [1]: 100% | Kill rate in % after 7 days [2]: 100%

O=C1C=C2C(CCCN2Cc2ccc(Cl)nc2)O1 (stereo not shown) [Example I-2, 4-[(6-Chloropyridin-3-yl)methyl]-5,6,7,7a-tetrahydrofuro[3,2-b]pyridin-2(4H)-one]
pest or weed control at 500 g/ha [1]: 100% | Kill rate in % after 7 days [3]: 100% | Kill rate in % after 6 days [4]: 100% | Kill rate in % after 6 days ([5]; 20 ppm): 95% | Kill rate in % after 2 days (Lucilia cuprina larvae): 100% | Kill rate in % after 7 days [6]: 85%

CC1CC2OC(=O)C=C2N(Cc2ccc(Cl)nc2)C1 (single isomer, unassigned) [Example I-12a, 4-[(6-Chloropyridin-3-yl)methyl]-6-methyl-5,6,7,7a-tetrahydrofuro[3,2-b]-pyridin-2(4H)-on]
pest or weed control at 500 g/ha [1]: 100% | Kill rate in % after 5 days [7]: 100%

O=C1C=C2C(OCCN2Cc2ccc(Cl)nc2)O1 (stereo not shown) [Example I-1, 1-[(6-Chloropyridin-3-yl)methyl]-2,3-dihydro-1H-furo[2,3-b][1,4]oxazin-6(4aH)-one]
pest or weed control at 500 g/ha [1]: 100% | Kill rate in % after 5 days [7]: 100%

CC1CC2OC(=O)C=C2N(Cc2ccc(Cl)nc2)C1 (single isomer, unassigned) [Example I-12b, 4-[(6-Chloropyridin-3-yl)methyl]-6-methyl-5,6,7,7a-tetrahydrofuro[3,2-b]-pyridin-2(4H)-on]
Kill rate in % after 5 days [1]: 100% | Kill rate in % after 5 days [7]: 100% | Kill rate in % after 6 days [8]: 90%

O=C1C=C2C(CCCCN2Cc2ccc(Cl)nc2)O1 (stereo not shown) [Example I-7, 4-[(6-Chloropyridin-3-yl)methyl]-4,5,6,7,8,8a-hexahydro-2H-furo[3,2-b]-azepin-2-one]
pest or weed control at 500 g/ha [1]: 100% | Kill rate in % after 6 days [4]: 100% | Kill rate in % after 6 days ([5]; 100 ppm): 95%

O=C1C=C2C(CC(Cl)CN2Cc2ccc(Cl)nc2)O1 (single isomer, unassigned) [Example I-17a, 4-[(6-Chloropyridin-3-yl)methyl]-6-chloro-5,6,7,7a-tetrahydrofuro[3,2-b]-pyridin-2(4H)-one]
pest or weed control at 500 g/ha [1]: 100% | Kill rate in % after 7 days [2]: 100%

O=C1C=C2[C@@H](CCCN2Cc2ccc(Cl)nc2)O1 [Example I-3]
pest or weed control at 500 g/ha [1]: 100% | Kill rate in % after 7 days [3]: 100% | Kill rate in % after 7 days [2]: 100%

CC12CCCN(Cc3ccc(Cl)nc3)C1=CC(=O)O2 (stereo not shown) [Example I-10, 4-[(6-Chloropyridin-3-yl]methyl]-7a-methyl-5,6,7,7a-tetrahydrofuro[3,2-b]-pyridin-2(4H)-one]
pest or weed control at 500 g/ha [1]: 100%

O=CC1=C2C(CCCN2Cc2ccc(Cl)nc2)OC1=O (stereo not shown) [Example I-11, 3-Formyl-4-[(6-chloropyridin-3-yl)methyl]-5,6,7,7a-tetrahydrofuro [3,2-b]-pyridin-2(4H)-one]
pest or weed control at 500 g/ha [1]: 100%

O=C1OC2COCN(Cc3ccc(Cl)nc3)C2=C1Cl (stereo not shown) [Example I-8]
pest or weed control at 500 g/ha [1]: 100%

O=C1C=C2C(O1)C(O)CCN2Cc1ccc(Cl)nc1 (stereo not shown) [Example I-19]
pest or weed control at 500 g/ha [1]: 100%

O=C1C=C2C(CC=CN2Cc2ccc(Cl)nc2)O1 (stereo not shown) [Example I-18, 4-[(6-Chloropyridin-3-yl)methyl]-7,7a-dihydrofuro[3,2-b]pyridin-2(4H)-one]
pest or weed control at 500 g/ha [1]: 100%

O=C1C=C2[C@H](CCCN2Cc2ccc(Cl)nc2)O1 [Example I-4]
pest or weed control at 500 g/ha [1]: 100% | Kill rate in % after 7 days [2]: 100%

O=C1CC2OC(=O)C=C2N(Cc2ccc(Cl)nc2)C1 (stereo not shown) [Example I-14]
pest or weed control at 500 g/ha [1]: 100% | Kill rate in % after 5 days [7]: 100%

O=C1C=C2C(CC(Cl)CN2Cc2ccc(Cl)nc2)O1 (single isomer, unassigned) [Example I-17b, 4-[(6-Chloropyridin-3-yl)methyl]-6-chloro-5,6,7,7a-tetrahydrofuro[3,2-b]-pyridin-2(4H)-one]
Kill rate in % after 5 days [1]: 90%

O=C1C=C2C(CC=CCN2Cc2ccc(Cl)nc2)O1 (stereo not shown) [Example I-6, 4-[(6-Chloropyridin-3-yl)methyl]-4,5,8,8a-tetrahydro-2H-furo[3,2-b]azepin-2-one]
pest or weed control at 500 g/ha [1]: 100% | Kill rate in % after 2 days (Lucilia cuprina larvae): 100%

O=C1OC2CCCN(Cc3ccc(Cl)nc3)C2=C1Cl (stereo not shown) [Example I-9]
pest or weed control at 500 g/ha [1]: 100% | Kill rate in % after 6 days [4]: 100% | Kill rate in % after 6 days ([5]; 100 ppm): 90% | Kill rate in % after 2 days (Lucilia cuprina larvae): 80%

O=C1C=C2C(CC(F)(F)CN2Cc2ccc(Cl)nc2)O1 (stereo not shown) [Example I-15]
pest or weed control at 500 g/ha [1]: 100%
